These results are taken from paper PMC8157947, “Peptidic boronic acids are potent cell-permeable inhibitors of the malaria parasite egress serine protease SUB1” (Proceedings of the National Academy of Sciences of the …, 2021).

Values joined by “and” are separate entries in the source; they are usually repeats but may differ in a detail not shown here. Equal values may be shown once. “Also recorded” adds a separate entry of the source. Read-outs that look alike come from different tables or passages of the source.

The target in data set [1] is T1, recombinant PfSUB1 (rPfSUB1) (Plasmodium falciparum, UniProt Q8I0V0).
T1 construct: Chymotrypsin-treated rPfSUB1 (expressed and purified as described previously); made in house
Put plainly: rPfSUB1 fluorogenic peptide substrate cleavage inhibition assay. The class given is biochemical. The text has this: We previously described the development of a fluorescence-based in vitro assay suitable for the evaluation of substrate-based PfSUB1 inhibitors, using recombinant PfSUB1 (rPfSUB1) and fluorogenic peptide substrates based on cleavage sites within endogenous protein substrates of PfSUB1 ([13], [21]). […] This was perhaps unsurprising due to the high molecular mass and polar nature of these compounds, including the presence of a carboxylic acid moiety that was designed to mimic endogenous PfSUB1 protein substrates by interacting with the basic S’ surface of the PfSUB1 active-site cleft ([16]). Collectively, these features likely rendered the compounds poorly membrane penetrant.
Fluorescence of this peptide is quenched by rhodamine dimerization in the intact substrate but increases upon cleavage at the internal Q-D bond. Chymotrypsin-treated rPfSUB1 (expressed and purified as described previously ([16]) was stored at −80 °C as a 228 U/mL stock in 20 mM Tris–HCl pH 8.2, 150 mM NaCl, 10% glycerol, and diluted for use (1:500 or 1:600) in reaction buffer (20 mM Tris–HCl pH 8.2, 150 mM NaCl, 12 mM CaCl2, 25 mM CHAPS). Peptidic boronic acid inhibitors were dissolved in 100% DMSO at 10 or 20 mM, then further diluted in DMSO to generate stock solutions ranging from 500 to 0.01 μM and then used diluted 1:100 in the enzyme reactions. All reactions were performed in wells of white 96-well microwell plates (Nunc); 50 μL diluted rPfSUB1 was preincubated for 5 min with 1 μL each of the serially diluted boronic acid inhibitors, followed by addition of 50 μL substrate solution (0.1 μM final). Subsequent fluorescence increase was continuously monitored using a SpectraMax M5e plate reader and SoftMax Pro-6.3 software, with readings taken every 5 min for 60 min using excitation and emission values of 552 and 580 nm, respectively. […] All experiments were performed in duplicate.

The test system of data set [2] is asexual blood-stage P. falciparum (clone 3D7). Description: SYBR Green I parasite growth assay. The class given is cell-based, Plasmodium falciparum. The conditions noted are these: for EC50: Plasmodium falciparum, 3D7, 96 h, two erythrocytic growth cycles, SYBR Green I. As for the experimental part: The impact of the peptidic boronic acids on replication of asexual blood-stage P. falciparum (clone 3D7) was assessed using a SYBR Green I assay, essentially as described by Smilkstein et al. ([22]). Briefly, test compounds (dissolved in dimethyl sulfoxide [DMSO] at concentrations ranging from 4 mM to 5 μM) were added in triplicate to wells of flat bottomed, 96-well microtitre plates (1 μL per well). Wells were then supplemented with 100 μL per well of a P. falciparum parasite culture at 0.1% parasitaemia, 1% hematocrit. Each assay plate also included DMSO-only control wells (1% vol/vol), as well as additional control wells containing uninfected RBCs only. Plates were incubated in sealed, humidified gassed chambers at 37 °C for 96 h to allow the parasites to undergo two entire cycles of erythrocytic growth. Wells were then supplemented with 100 μL 1:5,000 dilution of stock SYBR Green I (Life Technologies, catalog no. S7563) diluted in 20 mM Tris HCl pH 7.5, 5 mM EDTA, 0.008% (weight/vol) saponin, 0.08% (vol/vol) Triton ×100. Plates were agitated to mix, incubated for a further 1 h in the dark at room temperature, then 150 μL samples from each well transferred to a fresh white microwell plate and fluorescence quantified using a SpectraMax M5e plate reader and SoftMax Pro-6.3 software (Ex 485 nm/Em 530 nm). IC50 values were determined from dose–response curves obtained after subtracting background fluorescence values (obtained from the RBC-only wells) from all experimental readings.

Data set [3] deals with P. falciparum 3D7 schizonts. Put plainly: Short-term egress/invasion assay, ring formation by flow cytometry. The class given is cell-based, Plasmodium falciparum. Conditions: for EC50: Plasmodium falciparum, mature 3D7 schizonts with RBCs, 4 h, flow cytometry. How it is done: For this, P. falciparum cultures containing synchronous, highly mature schizonts were supplemented with compounds 3b, 3e, 3i, and 3j at a range of dilutions, then allowed to undergo egress and invasion for just 4 h in the continued presence of the compounds, before assessing formation of newly invaded “ring” stage parasites by flow cytometry.
(§1) Short-term egress, invasion, and washout assays were performed essentially as described previously ([27], [28], [42]). Briefly, highly synchronous mature Percoll-enriched schizonts with or without added fresh RBCs (∼5% parasitaemia final) were incubated with compounds under test or vehicle only (DMSO, 1% vol/vol). For washout assays, schizonts were treated with C2 or various concentrations of inhibitor 3j for 1 to 4 h, then washed extensively (at least four times) prior to addition to fresh RBCs where required. After incubation at 37 °C for just 1 to 4 h (or overnight for invasion assays) to allow schizont rupture, cells were pelleted. Clarified culture supernatants were assessed for extent of hemoglobin release (a measure of schizont rupture) by absorption spectroscopy at 415 nm as described previously ([28]) or analyzed by Western blot using antibodies against SERA5 ([7], [11]). To quantify generation of new rings, samples of the cultures were fixed with 4% paraformaldehyde/0.02% glutaraldehyde and stained with SYBR Green I (Life Technologies) and then analyzed by flow cytometry on a BD FACSVerse using BD FACSuite software. Data were analyzed using FlowJo software. All cultures were also routinely analyzed by microscopic examination of Giemsa-stained thin films to visually assess parasite morphology.
On the technique in general: In flow cytometry, cells or beads pass a laser one at a time.

The test system of data set [4] is P. falciparum schizonts expressing EXP2-mNeonGreen. Description: Time-lapse video microscopy of egress after compound washout. The class given is cell-based, Plasmodium falciparum. Conditions: 1 μM.
For a further data set, the system named is P. falciparum schizonts. Put plainly: Ring formation after pretreatment of schizonts and washout. The class given is cell-based, Plasmodium falciparum. Conditions: pretreated schizonts washed, fresh RBCs, assessed at 24 h; 3j 10 μM, C2 1 μM. How it is done: as §1
In data set [5] the test system is PfSUB1-mediated proteolytic processing of SERA5. Put plainly: Western blot of SERA5 processing after washout. In kind it is cell-based, Plasmodium falciparum. Conditions: 4 h pretreatment then washout. The text has this: To seek unambiguous confirmation that PfSUB1 is the intracellular target of compound 3j, we examined the effects of the compound on the PfSUB1-mediated proteolytic processing of the established endogenous PfSUB1 substrate SERA5, an abundant parasite PV protein that only becomes accessible to cleavage upon discharge of PfSUB1 into the PV in the minutes leading up to egress and is then released in a processed form into culture supernatants ([6], [11], [12]). […] It was concluded that compound 3j prevents egress and parasite proliferation through direct inhibition of intracellular PfSUB1.
Short-term egress, invasion, and washout assays were performed essentially as described previously ([27], [28], [42]). […] Clarified culture supernatants were assessed for extent of hemoglobin release (a measure of schizont rupture) by absorption spectroscopy at 415 nm as described previously ([28]) or analyzed by Western blot using antibodies against SERA5 ([7], [11]). To quantify generation of new rings, samples of the cultures were fixed with 4% paraformaldehyde/0.02% glutaraldehyde and stained with SYBR Green I (Life Technologies) and then analyzed by flow cytometry on a BD FACSVerse using BD FACSuite software. Data were analyzed using FlowJo software. All cultures were also routinely analyzed by microscopic examination of Giemsa-stained thin films to visually assess parasite morphology.

Data set [6] deals with T1, recombinant PfSUB1 (rPfSUB1). Conditions: cited from earlier work.
In data set [7] the test system is asexual blood-stage P. falciparum (clone 3D7). Also noted: method as in PMID 22543039, PMID 25129616. The conditions noted are these: earlier work; cited from earlier work.
Details of data set [8]: method as in PMID 30117017. Conditions: cited from earlier work.
The mark [9] stands for this setting: fluorogenic peptide substrate, mean ± SD of at least three measurements, read-out: IC50 (nM) (rPfSUB1).

T1 sequence (Q8I0V0 218-688): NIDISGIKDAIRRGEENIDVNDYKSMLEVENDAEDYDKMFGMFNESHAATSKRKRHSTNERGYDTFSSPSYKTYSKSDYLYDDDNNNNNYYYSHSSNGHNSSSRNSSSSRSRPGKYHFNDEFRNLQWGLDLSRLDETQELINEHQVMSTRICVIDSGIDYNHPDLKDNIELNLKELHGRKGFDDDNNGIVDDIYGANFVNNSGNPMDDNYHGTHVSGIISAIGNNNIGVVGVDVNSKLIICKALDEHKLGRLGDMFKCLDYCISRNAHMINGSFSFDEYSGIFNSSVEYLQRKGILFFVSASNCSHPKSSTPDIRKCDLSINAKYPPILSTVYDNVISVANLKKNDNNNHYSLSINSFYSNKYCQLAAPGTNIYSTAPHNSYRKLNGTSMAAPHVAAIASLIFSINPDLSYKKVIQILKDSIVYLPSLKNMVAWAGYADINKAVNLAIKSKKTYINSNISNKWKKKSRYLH

`CC(=O)N[C@H](C(=O)N[C@H](C(=O)NCC(=O)NC(C)C(=O)C(=O)NCCC(=O)O)[C@@H](C)O)C1CCCC1` (stereo partly shown) [2a]: the IC50 was 400 nM in data set [1] (IC50(PfSUB1), Fig. 1); ~370 nM and 370 nM in data set [1] (IC50 (nM) (rPfSUB1), fluorogenic peptide substrate, mean ± SD of at least three measurements). The inhibition at 10 µM in [1] (read-out: degree of rPfSUB1 inhibition at 10 µM (%)) worked out at 97%. Further, the “activity in parasite growth assay” value in data set [2] is recorded as “no activity in parasite growth assay”.
Regarding `CCC(C)[C@H](NC(C)=O)C(=O)N[C@H](C(=O)NCC(=O)N[C@@H](C)B(O)O)[C@@H](C)O` (stereo partly shown) [3a], in data set [1] (setting [9]), the IC50 came out at 69.4 ± 1.2 nM. This molecule also showed an EC50 in [2] of 1.8 ± 0.6 µM.
On to `CC(=O)NC(C(=O)NC(C(=O)NCC(=O)NC(C)B(O)O)C(C)O)C1CCCC1` (stereo not shown) [3b], for which the IC50 in data set [1] (setting [9]) is 9.3 ± 0.5 nM. Besides, the EC50 was determined as 2.3 ± 1.4 µM in [2] and 12700 ± 800 nM in data set [3].
In the case of `CC(=O)N[C@H](C(=O)N[C@H](C(=O)NCC(=O)N[C@H](C)B(O)O)[C@@H](C)O)C1CCCC1` [3c], the IC50 in data set [1] (setting [9]) was determined as 60.1 ± 2.1 nM. Besides, a half-maximal response in data set [2] (EC50) required 18.4 ± 1.8 µM.
Regarding `CC(=O)N[C@H](C(=O)N[C@H](C(=O)NCC(=O)NCB(O)O)[C@@H](C)O)C1CCCC1` [3d], in data set [1] (setting [9]), the IC50 was determined as 54.3 ± 1.1 nM. In addition, a half-maximal effect in data set [2] (EC50) was put at 1.9 ± 0.4 µM.
As for `CC(=O)N[C@H](C(=O)N[C@H](C(=O)NCC(=O)N[C@H]1CCOB1O)[C@@H](C)O)C1CCCC1` [3e], the 50% inhibitory concentration (IC50) in data set [1] (setting [9]) was 4.6 ± 0.1 nM. For the same molecule, the concentration for a half-maximal effect (EC50) in [2] was found to be 15 ± 3.6 µM; in [3] it was 15700 ± 2500 nM.
In the case of `CC(=O)N[C@H](C(=O)N[C@H](C(=O)NCC(=O)N[C@H]1CCCOB1O)[C@@H](C)O)C1CCCC1` [3f], the IC50 in data set [1] (setting [9]) stood at 204 ± 7.5 nM.
Take `CC(=O)N[C@H](C(=O)N[C@H](C(=O)NCC(=O)N[C@H]1CCC(=O)OB1O)[C@@H](C)O)C1CCCC1` [3g]: the IC50 in data set [1] (setting [9]) was found to be 18.7 ± 1.3 nM.
As for `CC(=O)N[C@H](C(=O)N[C@H](C(=O)NCC(=O)NC(B(O)O)c1ccccc1)[C@@H](C)O)C1CCCC1` (stereo partly shown) [3h], in data set [1] (setting [9]), the IC50 came out at 112 ± 2.3 nM.
On to `CC(=O)N[C@H](C(=O)N[C@@H](C)C(=O)NCC(=O)N[C@@H](C)B(O)O)C1CCCC1` [3i], for which the IC50 in data set [1] (setting [9]) is ~7.8 nM and 7.8 nM. The 50% effective concentration (EC50) is 0.34 ± 0.08 µM in [2] and 2000 ± 100 nM in data set [3]. Further, the “improved growth inhibitory potency” value in data set [2] (relative to compound 3b) is roughly 10 fold. For the same molecule, the “schizont phenotype in Giemsa-stained thin films” value in data set [3] (10 μM, 4 h incubation) was “arrest of unruptured schizonts with no ring formation”.
With `CN(C)Cc1ccn2c(-c3ccnc(N)n3)c(-c3ccc(F)cc3)nc2c1` [C2, 4-[7-[(dimethylamino)methyl]-2-(4-fluorphenyl)imidazo[1,2-α]pyridine-3-yl]pyrimidin-2-amine, reference compound], the “time of egress initiation following washout” value in data set [4] is reported as roughly 6.5 min. The “ring production after washout” value in the data set with P. falciparum schizonts was “produced rings efficiently”. In addition, in data set [5], the SERA5 proteolytic processing result is given as “blocked”.
With `CC(=O)N[C@H](C(=O)N[C@H](C(=O)NCC(=O)NC(C)C(=O)C(=O)NCCC(=O)O)[C@@H](C)O)C(C)C` (stereo partly shown) [compound 1], the IC50 in data set [6] (Table S1) is 900 ± 200 nM; in data set [6] (earlier work) it was roughly 900 nM. In addition, in data set [7], the “antiparasite activity in vitro / parasite growth assay” value is reported as “no antiparasite activity in vitro; also recorded: no activity in parasite growth assay”.
For `CC(C)C[C@H](NC(=O)CNC(=O)c1cc(Cl)ccc1Cl)B(O)O` [ixazomib], in data set [8], the terminal half-life is roughly 228 h.

As usually defined, the IC50 is the concentration that inhibits the measured activity by half. For orientation: inhibition means the share of the control response that was lost under treatment. For orientation: EC50 means the concentration giving half of the maximal effect.
